The values below come from patent US11078207B2, “Substituted pyrrolo[2,3-d]pyrimidines as HER2 inhibitors” (TAIHO PHARMACEUTICAL CO., LTD., priority 2019, dated 2021).

Molecules are shown by their SMILES. Where two headings read alike, the source gives them in different places.

Data set [1] can be described thus: Evaluation of brain penetration properties. The format is in vivo, BALB/cA mice. Conditions: mouse, 0.5 hours after oral 50 mg/kg/day, BALB/cA mice; for Kp at 0.5 h: read-out: Kp value (Compound concentration in brain/plasma).
A further data set relates to SK-BR-3 cells. The data set is described as follows: Growth inhibitory activity against HER2 expressing cell line SK-BR-3. It counts as cell-based. Conditions: Homo sapiens, SK-BR-3, 72 h; 3 days, CellTiter-Glo 2.0. How it is done: SK-BR-3 cells as a HER2 overexpressing human breast cancer cell line were suspended in a McCoy's 5a medium (manufactured by Life Technologies) supplemented with 10% fetal bovine serum. The cell suspension was seeded in each well of a 384-well flat-bottom microplate, and was then cultured in a 5% carbon dioxide gas-containing culture vessel at 37° C. for 1 day. Thereafter, the compound of the present invention was dissolved in DMSO, and the compound was diluted to 500 times the final concentration in DMSO. The compound in the DMSO solution was diluted with DMSO solution or the medium used in the suspension of the cells, and the obtained solution was then added to each well of the culture plate so that the final concentration of DMSO was 0.2%. The obtained mixture was further cultured in the 5% carbon dioxide gas-containing culture vessel at 37° C. for 3 days. After completion of the culture for 3 days in the presence of the compound, the cells were counted using CellTiter-Glo 2.0 (manufactured by Promega), and the growth inhibition percentage was then calculated according to the following equation. […] Growth inhibitory percentage (%)=(C−T)/(C)×100 T: Emission intensity from the well to which the test compound was added C: Emission intensity from the well to which the test compound was not added

For another data set, the target named is T1, HER2 (Homo sapiens, UniProt P04626).
T1 construct: purchased Carna Biosciences, Inc
T1 sequence (P04626 23-1255): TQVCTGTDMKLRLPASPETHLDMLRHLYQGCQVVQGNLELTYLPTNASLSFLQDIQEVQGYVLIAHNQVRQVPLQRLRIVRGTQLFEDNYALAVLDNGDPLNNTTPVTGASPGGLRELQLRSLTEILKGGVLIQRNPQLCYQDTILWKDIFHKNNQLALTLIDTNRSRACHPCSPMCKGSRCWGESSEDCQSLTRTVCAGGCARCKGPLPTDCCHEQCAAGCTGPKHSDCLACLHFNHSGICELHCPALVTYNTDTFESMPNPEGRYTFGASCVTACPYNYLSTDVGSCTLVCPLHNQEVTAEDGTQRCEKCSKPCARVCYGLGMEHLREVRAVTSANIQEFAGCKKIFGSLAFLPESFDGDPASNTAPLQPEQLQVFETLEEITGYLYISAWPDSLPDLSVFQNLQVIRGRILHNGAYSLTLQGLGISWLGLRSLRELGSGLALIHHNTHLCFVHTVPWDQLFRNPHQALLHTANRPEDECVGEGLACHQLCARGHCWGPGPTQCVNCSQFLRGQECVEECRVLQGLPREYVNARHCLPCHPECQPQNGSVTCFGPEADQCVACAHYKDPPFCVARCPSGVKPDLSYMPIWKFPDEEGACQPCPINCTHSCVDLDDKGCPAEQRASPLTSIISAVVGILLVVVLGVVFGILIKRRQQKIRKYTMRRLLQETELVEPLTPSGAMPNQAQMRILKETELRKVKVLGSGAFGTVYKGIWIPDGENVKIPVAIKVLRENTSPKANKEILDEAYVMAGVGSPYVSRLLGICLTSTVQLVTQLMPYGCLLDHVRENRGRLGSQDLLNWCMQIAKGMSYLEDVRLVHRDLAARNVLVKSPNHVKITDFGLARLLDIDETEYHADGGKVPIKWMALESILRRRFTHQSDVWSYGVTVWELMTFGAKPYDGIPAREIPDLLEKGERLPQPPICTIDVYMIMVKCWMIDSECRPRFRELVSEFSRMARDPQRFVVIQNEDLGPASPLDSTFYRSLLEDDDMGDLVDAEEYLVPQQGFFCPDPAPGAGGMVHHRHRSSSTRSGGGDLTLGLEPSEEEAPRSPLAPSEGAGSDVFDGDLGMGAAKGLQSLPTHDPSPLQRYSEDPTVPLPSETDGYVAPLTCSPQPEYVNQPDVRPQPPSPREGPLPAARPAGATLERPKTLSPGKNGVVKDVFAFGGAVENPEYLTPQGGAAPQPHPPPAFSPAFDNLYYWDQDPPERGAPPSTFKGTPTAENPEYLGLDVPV
The experiment in a line: Inhibitory effect (in vitro) on HER2 phosphorylation activity. The format is biochemical. Conditions: recombinant human HER2, ATP 5 μM, 25° C. 30 minutes. The text has this:
In order to determine conditions for a method of measuring the in vitro inhibitory activity of a compound against HER2 phosphorylation activity, based on the report regarding a HER2 kinase reaction using, as a substrate, a peptide having the same sequence (5-FAM-[…]-CONH2) as that of ProfilerPro Peptide 22 of PerkinElmer (Xie H et al., PLoS One. 2011; 6(7): e21487), ProfilerPro Peptide 22 was used as a substrate. A purified recombinant human HER2 protein used in the present test was purchased from Carna Biosciences, Inc. Upon the measurement of the inhibitory activity of the compound, first, the compound of the present invention was diluted stepwise with dimethyl sulfoxide (DMSO). […] To the reaction solution, EDTA was added to a final concentration of 30 mM, so as to terminate the reaction. Finally, using LabChip (registered trademark) EZ Reader II (PerkinElmer), an unphosphorylated substrate peptide (S) and a phosphorylated peptide (P) were separated and detected according to microchannel capillary electrophoresis.

Data set [2] can be described thus: Evaluation of oral absorbability. It counts as in vivo, BALB/cA mice. The settings on record: mouse; plasma, oral 50 mg/kg/day, BALB/cA mice. How it is done:
The compound of the present invention was suspended or dissolved in 0.5% HPMC aqueous solution and 0.1 N hydrochloric acid, and the obtained suspension or solution was orally administered to BALB/cA mice (CLEA Japan, Inc.) at a dose of 50 mg/kg/day. At 0.5, 1, 2, 4 and 6 hours after completion of the oral administration, blood was collected from the facial vein over time, so as to obtain plasma. The concentration of the compound in the obtained plasma was measured by LC-MS/MS, and the oral absorbability of the present compound was evaluated.

A further data set concerns NCI-N87 cells. The experiment in a line: Growth inhibitory activity against HER2 expressing cell line NCI-N87. It counts as cell-based. Conditions: Homo sapiens, NCI-N87, 72 h; 3 days, CellTiter-Glo 2.0. How it is done:
NCI-N87 cells as a HER2 overexpressing human stomach cancer cell line (American Type Culture Collection, Cat No. ATCC (registered trademark) CRL-5822) were suspended in an RPMI640 medium (Wako Pure Chemical Industries, Ltd.) supplemented with 10% fetal bovine serum. Subsequently, the cell suspension was seeded in each well of a 96-well flat-bottom microplate, and was then cultured in a 5% carbon dioxide gas-containing culture vessel at 37° C. for 1 day. Thereafter, the compound of the present invention was dissolved in DMSO, and the compound was diluted to 1000 times the final concentration in DMSO. The compound in the DMSO solution was diluted with the medium used in the suspension of the cells, and the obtained solution was then added to each well of the culture plate, so that the final concentration of DMSO became 0.1%. Regarding a control well, DMSO was diluted with the medium used in the suspension of the cells, and the obtained solution was then added to each well of the culture plate, so that the final concentration of DMSO became 0.1%. After addition of a drug solution, the obtained mixture was further cultured in the 5% carbon dioxide gas-containing culture vessel at 37° C. for 3 days. After completion of the culture for 3 days in the presence of the compound, the cells were counted using CellTiter-Glo 2.0 (manufactured by Promega) in accordance with the protocols recommended by Promega. The growth inhibition percentage was calculated according to the following equation. […] Growth inhibitory percentage (%)=(C−T)/(C)×100 T: Emission intensity from the well to which the test compound was added C: Emission intensity from the well to which the test compound was not added

Another data set concerns the target Ba/F3-HER2insYVMA cells (Homo sapiens, UniProt P04626, DUP772-775, cells depend on it). The data set is described as follows: Growth inhibitory activity against HER2 exon 20 insertion mutant expressing cell line. It counts as cell-based, mouse. Conditions: 3 days, CellTiter-Glo 2.0, read-out: HER2ex20insYVMA cell growth inhibitory activity IC50 value. On the procedure: Growth inhibitory activity against the HER2 exon 20 insertion mutant was measured using Ba/F3 cells that were a mouse B lymphocyte precursor cell line, into which a human HER2 exon 20 insertion mutant gene had been introduced. The Ba/F3 cells were maintained in an RPMI-1640 medium (Thermo Fisher Scientific) supplemented with 10% fetal bovine serum (FBS), 100 U/mL penicillin, 100 μg/mL streptomycin (Thermo Fisher Scientific) and 1 ng/mL mouse interleukin-3 (mIL-3) (CST).
Upon evaluation of cell growth inhibitory activity, the Ba/F3-HER2insYVMA cells were suspended in an RPMI-1640 medium supplemented with 10% FBS, 100 U/mL penicillin, and 100 μg/mL streptomycin. The cell suspension was seeded in each well of a 96-well flat-bottom microplate, and was then cultured in a 5% carbon dioxide gas-containing culture vessel at 37° C. for 1 day. The compound of the present invention was dissolved in DMSO, and was then diluted with DMSO or the medium used in the suspension of the cells. The obtained solution was then added to each well of the culture plate, so that the final concentration of DMSO became 0.2%. The obtained mixture was further cultured in the 5% carbon dioxide gas-containing culture vessel at 37° C. for 3 days. After completion of the culture for 3 days in the presence of the compound, the cells were counted using CellTiter-Glo 2.0 (manufactured by Promega), and the growth inhibition percentage was then calculated according to the following equation. […] Growth inhibitory percentage (%)=(C−T)/(C)×100 T: Emission intensity from the well to which the test compound was added C: Emission intensity from the well to which the test compound was not added

Where [3] appears, read: brain, read-out: Compound concentration in brain.
[4] abbreviates: plasma, read-out: Compound concentration in plasma.

Ba/F3-HER2insYVMA cells, sequence (P04626 with tags, fused parts or gaps DUP772-775): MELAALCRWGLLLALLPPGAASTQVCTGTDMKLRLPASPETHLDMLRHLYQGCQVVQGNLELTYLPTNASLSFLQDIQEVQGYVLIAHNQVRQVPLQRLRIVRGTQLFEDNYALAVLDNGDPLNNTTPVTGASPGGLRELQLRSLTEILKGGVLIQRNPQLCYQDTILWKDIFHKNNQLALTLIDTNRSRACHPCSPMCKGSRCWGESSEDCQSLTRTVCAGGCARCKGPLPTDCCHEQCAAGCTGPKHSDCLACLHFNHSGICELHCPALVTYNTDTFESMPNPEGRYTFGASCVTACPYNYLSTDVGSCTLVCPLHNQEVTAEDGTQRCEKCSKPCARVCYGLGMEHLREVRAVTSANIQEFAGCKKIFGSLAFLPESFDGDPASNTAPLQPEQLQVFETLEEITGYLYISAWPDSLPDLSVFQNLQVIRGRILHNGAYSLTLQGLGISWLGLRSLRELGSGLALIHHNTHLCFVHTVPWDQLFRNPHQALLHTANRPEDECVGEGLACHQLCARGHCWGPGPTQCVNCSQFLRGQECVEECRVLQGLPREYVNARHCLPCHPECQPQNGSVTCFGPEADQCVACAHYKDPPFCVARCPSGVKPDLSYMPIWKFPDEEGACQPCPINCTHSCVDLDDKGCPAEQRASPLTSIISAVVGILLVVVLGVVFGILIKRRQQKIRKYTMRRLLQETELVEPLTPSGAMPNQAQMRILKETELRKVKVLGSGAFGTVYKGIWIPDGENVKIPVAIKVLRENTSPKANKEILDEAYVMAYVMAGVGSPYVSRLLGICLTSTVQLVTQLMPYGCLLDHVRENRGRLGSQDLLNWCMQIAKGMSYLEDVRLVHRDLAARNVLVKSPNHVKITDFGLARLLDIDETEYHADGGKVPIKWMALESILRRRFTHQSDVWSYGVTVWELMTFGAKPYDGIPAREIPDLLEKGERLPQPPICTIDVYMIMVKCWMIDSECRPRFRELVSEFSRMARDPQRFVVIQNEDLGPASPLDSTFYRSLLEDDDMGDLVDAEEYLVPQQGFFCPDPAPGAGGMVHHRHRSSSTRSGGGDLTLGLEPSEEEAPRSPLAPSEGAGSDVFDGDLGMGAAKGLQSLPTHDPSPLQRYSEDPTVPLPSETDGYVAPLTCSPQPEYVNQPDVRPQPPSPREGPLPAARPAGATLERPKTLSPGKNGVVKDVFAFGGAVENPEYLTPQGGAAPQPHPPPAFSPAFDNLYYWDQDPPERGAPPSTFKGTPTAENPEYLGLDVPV

Take `C=CC(=O)N1C[C@H](n2c(C#CC)c(C(=O)N[C@H](CC)c3ccccc3)c3c(N)ncnc32)C[C@@H]1C` [Example 4, 7-((3R,5S)-1-acryloyl-5-methylpyrrolidin-3-yl)-4-amino-N—((R)-1-phenylpropyl)-6-(prop-1-yn-1-yl)-7H-pyrrolo[2,3-d]pyrimidine-5-carboxamide]: the concentration at 0.5 h in data set [1] (setting [3]) was 2.8 µM; in data set [1] (setting [4]), 8.3 µM. For the same compound, the Kp at 0.5 h in data set [1] (brain) came out at 0.34. Further, the IC50 in the data set on SK-BR-3 cells stood at 5.6 nM; on HER2, 3.9 nM; in the data set on NCI-N87 cells, 5.6 nM. The compound further displayed an AUC(0-t) in data set [2] of 12 µM·h. The GI50 on Ba/F3-HER2insYVMA cells was 20 nM.
As for `C=CC(=O)N1C[C@H](n2c(C#CC(C)(C)C)c(C(=O)N[C@H](C)c3ccccc3)c3c(N)ncnc32)C[C@@H]1C` [Example 12, 7-((3R,5S)-1-acryloyl-5-methylpyrrolidin-3-yl)-4-amino-6-(3,3-dimethylbut-1-yn-1-yl)-N—((R)-1-phenylethyl)-7H-pyrrolo[2,3-d]pyrimidine-5-carboxamide], the concentration at 0.5 h in data set [1] (setting [3]) was 3.2 µM; in data set [1] (setting [4]) it was 11 µM. The Kp at 0.5 h in data set [1] (brain) is 0.29. For the same compound, the IC50 came out at 17 nM in the data set with SK-BR-3 cells, 3.4 nM on HER2 and 15 nM in the data set on NCI-N87 cells. In data set [2], this compound came in with an AUC(0-t) of 36 µM·h. Also, the GI50 on Ba/F3-HER2insYVMA cells came out at 43 nM.
For `C=CC(=O)N1C[C@H](n2c(C#CC(C)(C)OC)c(C(=O)N[C@H](C)c3ccccc3)c3c(N)ncnc32)C[C@@H]1C` [Example 13, 7-((3R,5S)-1-acryloyl-5-methylpyrrolidin-3-yl)-4-amino-6-(3-methoxy-3-methylbut-1-yn-1-yl)-N—((R)-1-phenylethyl)-7H-pyrrolo[2,3-d]pyrimidine-5-carboxamide], the concentration at 0.5 h in data set [1] (setting [3]) came to 2.8 µM; in data set [1] (setting [4]), 13 µM. The Kp at 0.5 h in data set [1] (brain) turned out to be 0.22. The half-inhibitory concentration (IC50) amounted to 14 nM in the data set on SK-BR-3 cells, 5.2 nM at HER2 and 11.7 nM in the data set on NCI-N87 cells. For the same compound, in data set [2], the AUC(0-t) was 18 µM·h. Moreover, the GI50 at Ba/F3-HER2insYVMA cells came out at 23 nM.
Turning to `C=CC(=O)N1C[C@H](n2c(C#CCC)c(C(=O)N[C@H](C)c3ccccc3)c3c(N)ncnc32)C[C@@H]1C` [Example 14, 7-((3R,5S)-1-acryloyl-5-methylpyrrolidin-3-yl)-4-amino-6-(but-1-yn-1-yl)-N—((R)-1-phenylethyl)-7H-pyrrolo[2,3-d]pyrimidine-5-carboxamide], the concentration at 0.5 h in data set [1] (setting [3]) turned out to be 2.1 µM; in data set [1] (setting [4]), 9.9 µM. The Kp at 0.5 h in data set [1] (brain) came to 0.21. For the same compound, the IC50 worked out at 8.1 nM in the data set with SK-BR-3 cells, 2.2 nM on HER2 and 9.1 nM in the data set with NCI-N87 cells. In data set [2], the AUC(0-t) was 27 µM·h. The GI50 at Ba/F3-HER2insYVMA cells was found to be 27 nM.
With `C=CC(=O)N1C[C@H](n2c(C#CC3CC3)c(C(=O)N[C@H](C)c3ccccc3)c3c(N)ncnc32)C[C@@H]1C` [Example 11, 7-((3R,5S)-1-acryloyl-5-methylpyrrolidin-3-yl)-4-amino-6-(cyclopropylethynyl)-N—((R)-1-phenylethyl)-7H-pyrrolo[2,3-d]pyrimidine-5-carboxamide], the concentration at 0.5 h in data set [1] (setting [3]) amounted to 2.7 µM; in data set [1] (setting [4]), 12 µM. Further, the Kp at 0.5 h in data set [1] (brain) was 0.23. In addition, the results for the IC50 in the data set on SK-BR-3 cells, at HER2 and with NCI-N87 cells were 6.6 nM, 3.2 nM and 9.9 nM, respectively. The AUC(0-t) in data set [2] is 31 µM·h. For the same compound, the GI50 on Ba/F3-HER2insYVMA cells was 29 nM.
Take `C=CC(=O)N1C[C@H](n2c(C#CC)c(C(=O)N[C@H](C)c3ccccc3)c3c(N)ncnc32)C[C@@H]1C` [Example 2, 7-((3R,5S)-1-acryloyl-5-methylpyrrolidin-3-yl)-4-amino-N—((R)-1-phenylethyl)-6-(prop-1-yn-1-yl)-7H-pyrrolo[2,3-d]pyrimidine-5-carboxamide]: the concentration at 0.5 h in data set [1] (setting [3]) is 1.8 µM; in data set [1] (setting [4]), 6.6 µM. The Kp at 0.5 h in data set [1] (brain) came to 0.27. The figures for the IC50 in the data set with SK-BR-3 cells, at HER2 and in the data set with NCI-N87 cells were 2.8 nM, 2.5 nM and 3 nM, respectively. In data set [2], the AUC(0-t) came out at 15 µM·h. The GI50 at Ba/F3-HER2insYVMA cells is 12 nM.
As to `C=CC(=O)N1C[C@H](n2c(C#CC3CC3)c(C(=O)NC(C)(C)c3ccccc3)c3c(N)ncnc32)C[C@@H]1C` [Example 9, 7-((3R,5S)-1-acryloyl-5-methylpyrrolidin-3-yl)-4-amino-6-(cyclopropylethynyl)-N-(2-phenylpropan-2-yl)-7H-pyrrolo[2,3-d]pyrimidine-5-carboxamide], the concentration at 0.5 h worked out at 2.4 µM in data set [1] (setting [3]) and 13 µM in data set [1] (setting [4]). Moreover, in data set [1] (brain), the Kp at 0.5 h was found to be 0.18. The IC50 was 4.2 nM with SK-BR-3 cells, 5.6 nM on HER2 and 6.2 nM with NCI-N87 cells. In data set [2], this compound had an AUC(0-t) of 51 µM·h. In addition, the GI50 at Ba/F3-HER2insYVMA cells is 24 nM.
